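Exposure lasted 48 hours, with cells grown in 96-well plates and compounds tested at five concentrations. Here, GI50 denotes the concentration required for 50% inhibition of growth. TGI is the concentration that stops growth completely.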
Assays:
Test in all cases: growth of human tumour cells (NCI), 48 h
[1] = tested on: CAKI-1 renal
[2] = tested on: COLO 205 colon
[3] = tested on: MOLT-4 leukemia
[4] = tested on: RPMI-8226 leukemia
[5] = tested on: SF-539 CNS
[6] = tested on: SNB-19 CNS
[7] = tested on: TK-10 renal
[8] = tested on: UO-31 renal
[9] = tested on: LXFL 529 NSCLC

Compound: N#Cc1c(-c2cccs2)c2c(=S)[nH]c(=S)[nH]c2[nH]c1=S
- GI50 [1]: 31.4 µM
- TGI [1]: > 100 µM
- GI50 [2]: 28.8 µM
- TGI [2]: > 100 µM
- GI50 [3]: 14.3 µM
- TGI [3]: 42.7 µM
- GI50 [4]: 27.4 µM
- TGI [4]: 73.6 µM
- GI50 [5]: 22 µM
- TGI [5]: 48.1 µM
- GI50 [6]: 75.7 µM
- TGI [6]: > 100 µM
- GI50 [7]: 90.7 µM
- TGI [7]: > 100 µM
- GI50 [8]: 40.6 µM
- TGI [8]: 92.6 µM

Compound: CN1CCN(CC#Cc2cccc(C(=O)c3cnn(-c4ccc(F)cc4)c3N)c2)CC1
- GI50 [1]: > 25 µM
- TGI [1]: > 25 µM
- GI50 [2]: > 25 µM
- TGI [2]: > 25 µM
- GI50 [3]: > 25 µM
- TGI [3]: > 25 µM
- GI50 [4]: > 25 µM
- TGI [4]: > 25 µM
- GI50 [5]: > 25 µM
- TGI [5]: > 25 µM
- GI50 [6]: > 25 µM
- TGI [6]: > 25 µM
- GI50 [7]: > 25 µM
- TGI [7]: > 25 µM
- GI50 [8]: > 25 µM
- TGI [8]: > 25 µM

Compound: C[C@@H]1CC[C@@H]2[C@@H]1[C@H](OC(=O)/C=C/c1ccccc1)[C@]1(c3ccccc3)C[C@@H](OC(=O)CO)[C@@]2(C)O1
- GI50 [1]: 0.504 µM
- TGI [1]: 18.4 µM
- GI50 [2]: 16.1 µM
- TGI [2]: 32.7 µM
- GI50 [3]: 6.86 µM
- TGI [3]: 33.9 µM
- GI50 [4]: 10.3 µM
- TGI [4]: 38.9 µM
- GI50 [5]: 14.6 µM
- TGI [5]: 28.3 µM
- GI50 [6]: 20.2 µM
- TGI [6]: 55.9 µM
- GI50 [7]: 18.2 µM
- TGI [7]: 41.8 µM
- GI50 [8]: 0.154 µM
- TGI [8]: 0.305 µM

Compound: CC1(C)N=C(N)N=C(N)N1c1ccc(CCCCc2ccc(S(=O)(=O)F)cc2)cc1
- GI50 [1]: 3.7 µM
- TGI [1]: > 100 µM
- GI50 [2]: 2.28 µM
- TGI [2]: 19.8 µM
- GI50 [3]: 1.41 µM
- TGI [3]: 24.3 µM
- GI50 [4]: 0.522 µM
- TGI [4]: 10.8 µM
- GI50 [5]: 0.458 µM
- TGI [5]: 11.6 µM
- GI50 [6]: 2.58 µM
- TGI [6]: 19.4 µM
- GI50 [7]: 1.14 µM
- TGI [7]: 17.6 µM
- GI50 [8]: 35.1 µM
- TGI [8]: > 100 µM

Compound: COc1ccc(C(=O)Nc2ncc(Cc3ccc(Cl)cc3)s2)cc1
- GI50 [1]: 0.0471 µM
- TGI [1]: > 73.1 µM
- GI50 [2]: 0.0533 µM
- TGI [2]: 2.29 µM
- GI50 [3]: 0.064 µM
- TGI [3]: > 100 µM
- GI50 [4]: 0.0375 µM
- GI50 [5]: 0.047 µM
- TGI [5]: 0.516 µM
- GI50 [6]: 0.0897 µM
- TGI [6]: > 100 µM
- GI50 [7]: 3.94 µM
- TGI [7]: > 100 µM
- GI50 [8]: 0.91 µM
- TGI [8]: > 100 µM

Compound: CN1CCN(Cc2ccc(C(=O)Nc3cncc(C#Cc4cnc(N)c5ccccc45)c3)cc2C(F)(F)F)CC1
- GI50 [1]: 1.7 µM
- TGI [1]: 3.69 µM
- GI50 [2]: 3.69 µM
- TGI [2]: 13.3 µM
- GI50 [3]: 2.17 µM
- TGI [3]: 5.31 µM
- GI50 [4]: 2.15 µM
- TGI [4]: 5.27 µM
- GI50 [5]: 1.54 µM
- TGI [5]: 2.89 µM
- GI50 [6]: 2.49 µM
- TGI [6]: 5.69 µM
- GI50 [7]: 1.99 µM
- TGI [7]: 3.74 µM
- GI50 [8]: 1.59 µM
- TGI [8]: 2.98 µM

Compound: C#Cc1cnc(=O)n(C2CC(O)C(CO)O2)c1 (stereo not drawn)
- GI50 [1]: > 62.2 µM
- TGI [1]: > 100 µM
- GI50 [2]: > 100 µM
- TGI [2]: > 100 µM
- GI50 [3]: 98.9 µM
- TGI [3]: > 100 µM
- GI50 [4]: 8.51 µM
- TGI [4]: > 22.8 µM
- GI50 [5]: > 100 µM
- TGI [5]: > 100 µM
- TGI [6]: > 23 µM
- GI50 [7]: > 100 µM
- TGI [7]: > 100 µM
- GI50 [8]: > 100 µM
- TGI [8]: > 100 µM

Compound: CCOc1ccc(NC(=O)CC2Sc3ccccc3NC2=O)cc1 (stereo not drawn)
- TGI [1]: > 100 µM
- TGI [2]: > 100 µM
- TGI [9]: > 100 µM
- TGI [3]: > 100 µM
- TGI [4]: > 100 µM
- TGI [5]: > 100 µM
- TGI [6]: > 100 µM
- TGI [7]: > 100 µM
- TGI [8]: > 100 µM

Compound: CC(CO)(CO)N=Cc1cc(I)cc(I)c1O
- TGI [1]: 68.2 µM
- TGI [2]: 35.3 µM
- TGI [3]: 47.5 µM
- TGI [4]: > 100 µM
- TGI [5]: 31.3 µM
- TGI [6]: 48.9 µM
- TGI [7]: 84.2 µM
- TGI [8]: 34.6 µM

Compound: N#Cc1c(NC(=O)c2cccc(C(F)(F)F)c2)sc2c1CCC(=O)C2
- GI50 [1]: 0.287 µM
- TGI [1]: 1 µM
- GI50 [2]: 0.289 µM
- TGI [2]: 0.809 µM
- GI50 [3]: 0.35 µM
- TGI [3]: > 32.2 µM
- GI50 [4]: 0.239 µM
- TGI [4]: 0.869 µM
- GI50 [5]: 0.329 µM
- TGI [5]: 1.23 µM
- GI50 [6]: 0.445 µM
- TGI [6]: 2.36 µM
- GI50 [7]: 0.543 µM
- TGI [7]: 2.34 µM
- GI50 [8]: 0.355 µM
- TGI [8]: 1.38 µM

Compound: O=C(c1cccs1)c1c(C(F)(F)F)n([O-])c2ccccc2[n+]1=O
- GI50 [1]: 1 µM
- TGI [1]: 2.36 µM
- GI50 [2]: 1.66 µM
- TGI [2]: 9.89 µM
- GI50 [3]: 2.32 µM
- TGI [3]: 4.19 µM
- GI50 [4]: 0.613 µM
- TGI [4]: 10.5 µM
- GI50 [5]: 1.11 µM
- TGI [5]: 3.42 µM
- GI50 [6]: 5.67 µM
- TGI [6]: 13.2 µM
- GI50 [7]: 1.6 µM
- TGI [7]: 5.43 µM
- GI50 [8]: 0.0775 µM
- TGI [8]: 6.08 µM

Compound: COc1ccc(NC(=O)Nc2n[nH]c3ccccc23)cc1
- GI50 [1]: > 100 µM
- TGI [1]: > 100 µM
- GI50 [2]: > 100 µM
- TGI [2]: > 100 µM
- GI50 [3]: > 100 µM
- TGI [3]: > 100 µM
- GI50 [4]: > 100 µM
- TGI [4]: > 100 µM
- GI50 [5]: > 100 µM
- TGI [5]: > 100 µM
- GI50 [6]: > 100 µM
- TGI [6]: > 100 µM
- GI50 [7]: > 100 µM
- TGI [7]: > 100 µM
- GI50 [8]: > 100 µM
- TGI [8]: > 100 µM

Compound: N/C(CC(=O)Nc1cc(C(F)(F)F)ccc1Cl)=N\O
- TGI [1]: > 100 µM
- TGI [2]: > 100 µM
- TGI [3]: > 100 µM
- TGI [4]: > 100 µM
- TGI [5]: > 100 µM
- TGI [6]: > 100 µM
- TGI [7]: > 100 µM
- TGI [8]: > 100 µM

Compound: O=C(C#Cc1c[nH]c(=O)[nH]c1=O)c1ccccc1Cl
- TGI [1]: 31.3 µM
- TGI [2]: 29.8 µM
- TGI [3]: 44.3 µM
- TGI [4]: 71.7 µM
- TGI [5]: 30 µM
- TGI [6]: > 100 µM
- TGI [7]: 36.1 µM
- TGI [8]: 38.5 µM

Compound: NC(CO)Cc1cnc[nH]1 (stereo not drawn)
- TGI [1]: > 100 µM
- GI50 [2]: > 100 µM
- TGI [2]: > 100 µM
- GI50 [3]: > 100 µM
- TGI [3]: > 100 µM
- GI50 [4]: > 100 µM
- TGI [4]: > 100 µM
- GI50 [5]: > 100 µM
- TGI [5]: > 100 µM
- GI50 [6]: > 100 µM
- TGI [6]: > 100 µM
- GI50 [7]: > 100 µM
- TGI [7]: > 100 µM
- GI50 [8]: > 100 µM
- TGI [8]: > 100 µM

Compound: NC(N)=N/N=C(/c1ccccc1)c1ccc(F)cc1
- GI50 [1]: 0.404 µM
- TGI [1]: 16.1 µM
- GI50 [2]: 0.267 µM
- TGI [2]: 0.841 µM
- GI50 [3]: 2.67 µM
- TGI [3]: > 38.1 µM
- GI50 [4]: 0.558 µM
- TGI [4]: 21.6 µM
- GI50 [5]: 0.271 µM
- TGI [5]: 0.902 µM
- GI50 [6]: 0.476 µM
- TGI [6]: 19.5 µM
- GI50 [7]: 0.506 µM
- TGI [7]: 18.4 µM
- GI50 [8]: 0.991 µM
- TGI [8]: 14.6 µM

Compound: O=C1/C(=C/c2ccc(F)cc2)CCOc2ccc([N+](=O)[O-])cc21
- GI50 [1]: 2.08 µM
- TGI [1]: 4.73 µM
- GI50 [2]: 18.8 µM
- TGI [2]: 35 µM
- GI50 [3]: 2.49 µM
- TGI [3]: 6.02 µM
- GI50 [4]: 0.862 µM
- TGI [4]: 3.14 µM
- GI50 [5]: 2.52 µM
- TGI [5]: 5.99 µM
- GI50 [6]: 4.26 µM
- TGI [6]: 16.2 µM
- GI50 [7]: 3.88 µM
- TGI [7]: 16.1 µM
- GI50 [8]: 2.06 µM
- TGI [8]: 5.03 µM

— PubChem BioAssay (NCI)
